Common to all, as to format: physicochemical
Data set [1] in a line: Related substances in compound II solutions at different pH values (Table 1). As to conditions: aqueous solutions, pH adjusted with glacial acetic acid or tartaric acid; 40°C±2°C, 10 days. As for the experimental part: (§1) 750 ml of water for injection was measured and taken; nitrogen was charged beneath the surface of the liquid for about 20 min; and the water temperature was controlled to be 50° C. or less. 37.5 mg of compound II was weighed, added to the above-mentioned water for injection and stirred to dissolution and clarification to obtain solution (1). Solution (1) was adjusted with glacial acetic acid (source: Chengdu Kelong Chemical Co., Ltd.) and tartaric acid to different pH values, respectively, and aqueous solutions containing compound II at different pH values were obtained. The aqueous solutions were placed under the conditions of 40° C.±2° C. for 10 days, and the performance of related substances in the solutions at different pH values was examined (including the solution at a pH value not being adjusted), with data shown in Table 1.

Data set [2] is described as follows: Related substances in compound II solutions at pH range 3-5.5 (Table 2). As to conditions: aqueous solution, pH adjusted with glacial acetic acid; 40°C±2°C, 10 days. As for the experimental part: as §1, with “Considering the operability of industrial production, we examined the stability of solutions at a pH range of 3-5.5. 750” for “750”, “Ltd.)” for “Ltd.) and tartaric acid”, “values,” for “values, respectively,”, “examined,” for “examined (including the solution at a pH value not being adjusted),”, “2.” for “1.”

A short description of data set [3]: Related substances of formulation solutions for injection after high temperature acceleration at 40°C. Particulars: compound II raw material (stored refrigerated 2°C-8°C), control, 0 days. The protocol: The sample of Formulation 1 solution for injection was placed under the conditions of 40° C.±2° C. for 5 days; compound II raw material (stored under refrigerated conditions of 2° C.-8° C.) was used as a control; and changes of related substances in the sample were examined, with data shown in Table 3.
Formulation 2 solution for injection was placed under the conditions of 40° C. 2° C. for 5 days; compound II raw material (stored under refrigerated conditions of 2° C.-8° C.) was used as a control; and changes of related substances in the sample were examined, with data shown in Table 4.
Formulation 3 solution for injection was placed under the conditions of 40° C. 2° C. for 5 days; compound II raw material (stored under refrigerated conditions of 2° C.-8° C.) was used as a control; and changes of related substances in the sample were examined, with data shown in Table 5.
Formulation 4 solution for injection was placed under the conditions of 40° C. 2° C. for 9 days; compound II raw material (stored under refrigerated conditions of 2° C.-8° C.) was used as a control; and changes of related substances in the sample were examined, with data shown in Table 6.
Formulation 5 solution for injection was placed under the conditions of 40° C. […]

Several values for one entry are separate records, joined by “and”; a condition that tells them apart may be missing. Equal entries are not always repeated.

On to `CC(=O)N1CC2(CCN(C(=O)[C@@H](CCCCN)NC(=O)[C@@H](CC(C)C)NC(=O)[C@@H](Cc3ccccc3)NC(=O)[C@H](N)Cc3ccccc3)CC2)C1` [Compound II], for which the “pH value of best stability” value in data set [1] was “about 4”. Besides, the “pH range at which the product is stable” value in data set [2] is reported as 3-5.5. In addition, the “Total impurity (%)” value in data set [3] was 1.098% and 1.238%.

The values above are taken from patent US12599647B2, “Peptide amide composition and preparation method therefor” (Xizang Haisco Pharmaceutical Co., Ltd., priority 2019, dated 2026).
